The record followed here is patent US20240269148A1, “Enhancement of Anti-Angiogenic Cancer Immunotherapy by Abortogenic Agents” (Therapeutic Solutions International, Inc., priority 2023, published 2024).

For one assay, the system named is 4T1 cells. In words: 4T1 triple negative breast cancer model in BALB/c mice. It counts as in vivo. The method, then: Female BALB/c mice were administered 4T1 cells at a concentration of 1 million cells per mouse. VALLOVAX™ at a concentration of 500,000 cells per mouse was administered alone, RU-486 was administered alone (25 μg/g dose) and in combination of RU-486 and VALLOVAX™.

A further assay has as its system T cell. In words: T cell reactivity in vitro after RU-486 administration (4T1 model). It counts as cell-based. Particulars: administration of RU-486.

The structures appear in SMILES notation.

In the case of `CC#C[C@]1(O)CC[C@H]2[C@@H]3CCC4=CC(=O)CCC4=C3[C@@H](c3ccc(N(C)C)cc3)C[C@@]21C` [RU-486, mifepristone], in the assay on 4T1 cells (administration of RU-486), the “Breast cancer induced myeloid suppressor cells” value is “decreased” and the “Generation of CD8 cells capable of adoptively transferring immunity” value is listed as “enhance”. Moreover, in the assay on 4T1 cells (triple negative breast cancer 4T1 model), the “Therapeutic activity of ValloVax” value is “enhances”. In addition, the “T cell reactivity in vitro” value in the assay with T cell is recorded as “increased”.
